The target in data set [1] is T1, PDE1C (Homo sapiens, UniProt Q14123). Briefly: In vitro HTRF PDE1 inhibition assay (PDE1C). The note with it: 100 nM cyclic GMP. It counts as biochemical. The source says:
(§1) An exemplary procedure for the in vitro Homogenous Time Resolved Fluorescence assay, which can be used to determine the inhibitory action of compounds of the present invention toward PDE1 or its isoforms, follows.
(§2) The HTRF PDE1 assay utilized the HTRF (Homogenous Time Resolved Fluorescence) technology, which is based on the competition between unlabeled cyclic nucleotide and cyclic nucleotide labeled with XL665 for the binding to cyclic nucleotide-specific antibody labeled with cryptate. The HTRF signal is thus inversely proportional to the concentration of cyclic nucleotide being measured. Since phosphodiesterases break down cyclic nucleotides, the HTRF signal was used to determine PDE activity.
(§3) The Cisbio cGMP HTRF assay kit (Cat no: 62GM2PEC) was utilized. Cyclic GMP was diluted to 200 nM in HTRF assay buffer (1 mM CaCl2, 10 mM MgCl2, 10 mM Tris-HCl, 0.1% BSA, pH 7.4). 10 μl of compound or DMSO was diluted in 200 nM cyclic GMP solution and added to wells of a 96 well white plate to give 100 nM cyclic GMP in 1% DMSO final concentration. PDE (1A3, 1B or 1C) was diluted to 2× working concentration in HTRF assay buffer with 2 μg/ml Calmodulin, and 10 μl was added to initiate the reaction. The plate was then incubated for 45 minutes at 27° C. d2-Labelled cyclic GMP and anti-cGMP cryptate were diluted in 50 mM phosphate buffer, 0.8 M KF, 1% Triton X100, 0.2% BSA, pH 7.0. Following incubation 10 μl d2-cGMP, then 10 μl anti cGMP cryptate were added to each well and the plate was incubated for 60 minutes at room temperature. The plate was then read on Perkin Elmer EnVision at 2 different FRET readings ex/em 340 nm/665 nm and 340 nm/615 nm.
(§4) Compounds having an IC50 of <1 μM are denoted as +++. Compounds having an IC50 of 1-10 μM are denoted as ++. Compounds having an IC50 of 10-100 μM are denoted as +.
In general terms: Time-resolved FRET reads energy transfer from a long-lived donor to a nearby acceptor.

Data set [2] has as its system cognitive dysfunction in PCP-treated rats. Briefly: Novel object recognition test in rats repeatedly treated with phencyclidine (PCP). It counts as in vivo. The note with it: rats given PCP 3 mg/kg i.p. twice a day for 10 days; compound 1 or 3 mg/kg orally 60 minutes before test; compared to PCP+vehicle group. The method, then: Since an N-Methyl-D-aspartate receptor antagonist phencyclidine (PCP) has been known to cause schizophrenia-like symptoms including cognitive dysfunction in humans, PCP-treated animals have been widely used as a schizophrenic animal model. Using rats to which PCP was repeatedly administered as a schizophrenic animal model, the improvement in cognitive dysfunction with the compounds of the invention was evaluated in the novel object recognition test. Rats were habituated to the test environment which is a box (50 cm×50 cm×35 cm) with no object inside for 1 hour per day for 3 days. On the test day, rats were again put into the test box with no object inside to habituate themselves for three minutes. The rats were then put into the test box with two identical objects inside and were made to explore inside for three minutes for a training trial. After one minute, they were put into the test box with one of the objects (i.e., the familiar object) that was the same as used in the training trial and another object (i.e., a novel object) inside and were made to explore inside for three minutes for a test trial. Cognitive function was evaluated on the basis of preference for the novel object in the test trial utilizing rats' habit of exploring a novel object longer than a familiar object. Discrimination Index was calculated from the following equation as an index for preference of a novel object.
Discrimination Index=(Time to explore novel object−Time to explore familiar object)/(Time to explore novel object+Time to explore familiar object)

Data set [3] concerns the target T1, PDE1C. Kind of data set: In vitro SPA PDE1 inhibition assay (PDE1C). Type of data set: biochemical. The conditions noted are these: [3H]-cGMP 100 nM. As to the method:
(§5) The commercially available Scintillation Proximity Assay (SPA) system (Perkinelmer) was used for PDE1 inhibition assays. SPA Yttrium Silicate beads preferentially binds to non-cyclic GMP compared to cyclic GMP (cGMP) in the presence of zinc sulphate, which enables to measure the amount of enzyme reaction product ([^3H]-GMP) by scintillation counting.
(§6) For PDE1 inhibition assay, 10 μl of the test compounds in 5% dimethyl sulfoxide diluted in SPA assay buffer (1 mM CaCl2, 10 mM MgSO4, 10 mM Tris-HCl, pH 7.4) were placed in a 96-well white microtiter plate, and 20 μl of [^3H]-cGMP solution (100 nM final concentration, Perkinelmer) in SPA assay buffer was added. Assays were initiated by adding 20 μl of PDE (1A3, 1B or 1C) enzyme solution including calmodulin (final concentration 1 μg/ml). After 30 min incubation at 27° C., the reaction was stopped by the addition of 50 μl of a suspension of 10 mg/ml SPA beads in 18 mM ZnSO4. The microtiter plates were settled for 60 min, and then were measured in a TopCount NXT scintillation counter (PerkinElmer). IC50 values were determined from sigmoidal curves by plotting the percentage of PDE activity versus log compound concentration. IC50 was defined as the concentration of the test compounds required to inhibit the cyclic nucleotide hydrolyzing activities of tested PDEs by 50%.

Data set [4] has as its target T2, PDE1B (Homo sapiens, UniProt Q01064). Kind of data set: In vitro SPA PDE1 inhibition assay (PDE1B). It counts as biochemical. The conditions noted are these: [3H]-cGMP 100 nM. The method, then: as §5, §6
The target of data set [5] is T2, PDE1B. Kind of data set: In vitro HTRF PDE1 inhibition assay (PDE1B). It counts as biochemical. The conditions noted are these: in vitro PDE1B HTRF Assay; read-out: IC50.
For data set [6], the target named is T3, PDE1A3 (Homo sapiens, UniProt P54750). Kind of data set: In vitro SPA PDE1 inhibition assay (PDE1A3). Type of data set: biochemical. The conditions noted are these: PDE1A3, [3H]-cGMP 100 nM. The method, then:
as §5, §6

Data set [7] in a line: Evaluation of bioavailability, PK test in rats. Type of data set: in vivo. The note with it: rat; 7 week-old SD rats, intravenous vs oral administration, plasma LC-MS. As to the method: This test can be used to assess pharmacokinetics of the compounds of the present invention. Each compound of the invention was administered to 7 week-old SD rats intravenously with a solution in saline: 0.1N HCl=9:1 or orally with a 0.5% suspension in methyl cellulose, and each blood sample was collected at an appropriate interval as follows:
5, 15, and 30 minutes, and 1, 2, 4, 6, and 24 hours after intravenous administration
15 and 30 minutes, and 1, 2, 4, 6, and 24 hours after oral administration
The plasma was obtained from each blood, and the concentration of each compound in the plasma was measured with an LC-MS to calculate each pharmacokinetic parameter based on the concentration change.

Data set [8] can be described thus: Test for drug transportation to brain in rats. It counts as in vivo. The conditions noted are these: rat; SD rats, oral, one hour after administration; non-binding drug concentration ratio between brain and plasma. An excerpt:
Test for Drug Transportation to Brain in Rats
This test can be used to assess transportation of the compounds of the present invention to the brain. Each compound of the invention was orally administered to 7 week-old SD rats with a 0.5% suspension in methyl cellulose, and each plasma and brain were collected one hour after administration to measure the concentration of each compound in the plasma and the brain with an LC-MS.
Each protein binding ratio of the compounds in the plasma and the brain was measured by the equilibrium dialysis method.
The obtained concentrations and protein binding ratios of the compounds in the plasma and the brain can be applied to the following equation to calculate Kp, uu, brain (i.e., non-binding drug concentration ratio between brain and plasma).
Kp, uu, brain=[Compound concentration in brain×(100−Protein binding ratio in brain (%))/100]/[Compound concentration in plasma×(100−Protein binding ratio in plasma (%))/100]

Data set [9] addresses T3, PDE1A3. Briefly: In vitro HTRF PDE1 inhibition assay (PDE1A3). It counts as biochemical. The conditions noted are these: PDE1A3, 100 nM cyclic GMP.
Text: as §1, §2, §3, §4

T2 sequence (Q01064 whole entry): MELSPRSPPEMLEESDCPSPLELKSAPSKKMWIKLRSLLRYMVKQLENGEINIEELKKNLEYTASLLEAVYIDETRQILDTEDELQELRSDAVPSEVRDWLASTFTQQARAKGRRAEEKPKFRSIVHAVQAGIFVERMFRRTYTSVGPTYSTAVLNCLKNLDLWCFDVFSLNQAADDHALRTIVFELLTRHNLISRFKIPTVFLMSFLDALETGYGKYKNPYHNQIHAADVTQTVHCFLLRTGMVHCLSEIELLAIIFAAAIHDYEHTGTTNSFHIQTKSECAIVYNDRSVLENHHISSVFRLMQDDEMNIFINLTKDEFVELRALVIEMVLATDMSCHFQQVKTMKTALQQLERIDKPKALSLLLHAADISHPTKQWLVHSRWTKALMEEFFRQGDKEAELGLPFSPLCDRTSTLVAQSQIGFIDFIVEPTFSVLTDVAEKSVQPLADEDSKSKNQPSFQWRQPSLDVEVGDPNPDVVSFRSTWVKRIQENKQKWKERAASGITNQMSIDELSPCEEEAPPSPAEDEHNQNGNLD

Turning to `CCn1c(OCC2CCC(F)(F)CC2)nn2c(C3CCOCC3)ncc2c1=O` [Example 1], the IC50 (usually the concentration that inhibits the measured activity by half) in [1] was under 1 µM; in [3], 0.665 µM; in data set [4], 0.088 µM; in [5] it was under 1000 nM; in data set [6] it was 0.22 µM; in [9], under 1 µM. Moreover, the “Discrimination Index in novel object recognition test” value (“Discrimination Index” for short) in [2] was “significant increase”. Besides, the bioavailability (as a rule, the share of a dose that reaches the circulation, judged against a reference dose that is usually intravenous) in data set [7] is 23.3%. The Kp uu at 1 h in data set [8] amounted to 0.69.
In the case of `COc1nn2c(C3CCOCC3)ncc2c(=O)n1Cc1ccc(Cl)cc1` [Example 109, 3-(4-chlorobenzyl)-2-methoxy-7-(tetrahydro-2H-pyran-4-yl)imidazo[5,1-f][1,2,4]triazin-4(3H)-one], the IC50 in [1] is under 1 µM; in [3] it was 0.057 µM; in data set [4], 0.028 µM; in data set [5] it was under 1000 nM; in [6], 0.023 µM; in [9], under 1 µM. In addition, in data set [8], the Kp uu at 1 h was determined as 1.02.
For `COc1nn2c(C3CCOCC3)ncc2c(=O)n1CC1CCC(F)(F)CC1` [Example 115, 3-[(4,4-difluorocyclohexyl)methyl]-2-methoxy-7-(tetrahydro-2H-pyran-4-yl)imidazo[5,1-][1,2,4]triazin-4(3H)-one], the IC50 in [1] is under 1 µM; in data set [3], 0.065 µM; in [4], 0.033 µM; in [5] it was under 1000 nM; in data set [6], 0.034 µM; in data set [9] it was under 1 µM. The “Discrimination Index” value in data set [2] is given as “significant increase”. In [7], this compound yielded a bioavailability of 13.4%. Further, the Kp uu at 1 h in data set [8] amounted to 0.96.
In the case of `CC(C)c1ncc2c(=O)n(C)c(NCc3ccc(Cl)cn3)nn12` [Example 149, 2-{[(5-chloropyridin-2-yl)methyl]amino}-3-methyl-7-(propan-2-yl)imidazo[5,1-f][1,2,4]triazin-4(3H)-one], the IC50 in [1] was under 1 µM; in data set [3] it was 0.425 µM; in [4], 0.051 µM; in [5], under 1000 nM; in [6], 0.144 µM; in [9], under 1 µM. The “Discrimination Index” value in data set [2] is listed as “significant increase”. This compound also had a bioavailability in data set [7] of 55.6%. The Kp uu at 1 h in data set [8] was 0.3.
On to `Cn1c(OC[C@H]2CC[C@H](C(F)(F)F)CC2)nn2c(C3CCOCC3)ncc2c1=O` [Example 245, 3-methyl-7-(tetrahydro-2H-pyran-4-yl)-2-{[trans-4-(trifluoromethyl)cyclohexyl]methoxy}-imidazo[5,1-][1,2,4]triazin-4(3H)-one], for which the IC50 in data set [1] is under 1 µM; in data set [3] it was 0.547 µM; in data set [4] it was 0.036 µM; in [5] it was under 1000 nM; in [6] it was 0.113 µM; in [9], under 1 µM. Besides, the “Discrimination Index” value in data set [2] is given as “significant increase”. In [7], this compound displayed a bioavailability of 30.4%. In addition, the Kp uu at 1 h in data set [8] was determined as 0.72.
As to `CCO[C@H]1CC[C@H](COc2nn3c(C4CCOCC4)ncc3c(=O)n2C)CC1` [Example 246, 2-[(trans-4-ethoxycyclohexyl)methoxy]-3-methyl-7-(tetrahydro-2H-pyran-4-yl)imidazo[5,1-][1,2,4]triazin-4(3H)-one], the IC50 in [1] is under 1 µM; in data set [3], 0.788 µM; in data set [4] it was 0.064 µM; in data set [5] it was under 1000 nM; in [6], 0.289 µM; in [9], under 1 µM. Also, the bioavailability in data set [7] worked out at 51.6%. Further, in data set [8], the Kp uu at 1 h was 0.26.
On to `CCOC[C@H]1CC[C@H](COc2nn3c(C4CCOCC4)ncc3c(=O)n2C)CC1` [Example 288, 2-{[trans-4-(ethoxymethyl)cyclohexyl]methoxy}-3-methyl-7-(tetrahydro-2H-pyran-4-yl)-imidazo[5,1-][1,2,4]triazin-4(3H)-one], for which the IC50 in data set [1] is under 1 µM; in data set [3] it was 0.276 µM; in data set [4] it was 0.023 µM; in [5] it was under 1000 nM; in data set [6], 0.08 µM; in data set [9], under 1 µM. Further, the “Discrimination Index” value in [2] was “significant increase”. The same compound had a bioavailability in data set [7] of 54.5%. Besides, in data set [8], the Kp uu at 1 h was found to be 0.61.

These data come from US20180044343A1, “BICYCLIC IMIDAZOLO DERIVATIVE” (Sumitomo Dainippon Pharma Co., Ltd., priority 2015, published 2018).
